Measured values as given in patent US9335326B2, “Compositions and methods for characterizing a myopathy” (The Johns Hopkins University, priority 2010, dated 2016).

Columns and labels:
HeLa cells = assay: Immunoprecipitation of 200-kd and 100-kd autoantigens from radiolabeled lysates of mevinolin-treated HeLa cells with patient serum; format: cell-based; settings: HeLa cells pretreated for 24 hours with 10 pM mevinolin versus vehicle (DMSO) alone; FIG. 5A
Description: Given the strong association of statin use with the development of these anti-200/100-kd autoantibodies, HeLa cells were labelled with ^35S-methionine/cysteine after pretreatment for 24 hours with either 10 pM mevinolin or vehicle (DMSO) alone. To validate the protein equivalence of these lysates, immunoprecipitations were performed using antibodies against Mi-2 or PM-Scl. As anticipated, equal amounts of Mi-2 and the 5 protein components of the PM-Scl complex were detected in each lysate type.
Serum samples collected from each patient were stored at −80° C. HeLa cells cultured using standard procedures were radiolabeled for two hours with 100 μCi/ml ^35S-methionine and cysteine (MP Biomedicals, Solon, Ohio) in methionine-free and cysteine-free medium. The cells were subsequently lysed in buffer A (50 mM Tris pH 7.4, 150 mM NaCl, […], 0.5% Nonidet P40, 0.5% sodium deoxycholate, 0.1% sodium dodecyl sulfate (SDS), and a protease inhibitor cocktail). Each 10-cm dish was lysed in 1 ml buffer A and was used for 10 immunoprecipitations. Immunoprecipitations were performed by adding 1 μl of patient sera to 100 μl radiolabeled lysate and bringing the volume to 1 ml with buffer B (1% Nonidet P40, 20 mM Tris pH 7.4, 150 mM NaCl, 1 mM EDTA, and a protease inhibitor cocktail) and rotating the mix for one hour at 4° C. […]

[1] = system: anti-200/100 autoantibody-positive patients; assay: Treatment response (objective improvement in strength) of anti-200/100 autoantibody-positive patients with necrotizing myopathy; format: in vivo, human
Description: Medication regimens and treatment responses (based on objective improvements in strength) were variable. The clinical characteristics of the 16 anti-200/100 autoantibody-positive patients are available. […] Six (43%) of the 14 patients experienced a relapse when immunosuppressive medication was tapered or withdrawn. Seven […] of the 14 patients are currently undergoing tapering of their immunosuppressive medications and have not experienced a relapse to date. Only 1 patient had complete tapering of immunosuppressive medications without experiencing a relapse of weakness.
Two hundred twenty-five patients with banked sera, muscle biopsy specimens available for review, and a myopathy as defined by proximal muscle weakness, elevated creatine kinase (CK)levels, myopathic electromyography (EMG) findings, muscle edema on magnetic resonance imaging (MRI), and/or features of myopathy on muscle biopsy were enrolled in a longitudinal study, approved by the Johns Hopkins Institutional Review Board, from March 2007 through December 2008. […]

[2] = system: human anti-HMGCR antibodies; assay: Competition immunoprecipitation: patient sera preincubated with unlabeled C-terminal HMGCR, then IP of full-length IVTT HMGCR; format: binding; settings: anti-HMGCR-positive sera preincubated with increasing concentrations of unlabeled C-terminal HMGCR; FIG. 7A
Description: HMG-CoA reductase is a membrane protein with a small extracellular domain, seven membrane-spanning domains, and an intracellular catalytic domain. To define the region(s) of the protein recognized by sera from patients with anti-HMGCR antibodies, 35S-methionine-labeled full-length HMGCR protein, an N-terminal fragment including the extracellular and membrane-spanning domains (aa 1-377 of SEQ ID NO: 1), and a C-terminal fragment including the intracellular portion of the molecule (aa 340-888 of SEQ ID NO: 1) were synthesized. Serum from anti-HMGCR-positive patients consistently immunoprecipitated full-length HMGCR and the C-terminal fragment, but not the N-terminal fragment (FIG. 6). When anti-HMGCR-positive sera were preincubated with increasing concentrations of unlabeled C-terminal HMGCR prior to immunoprecipitation of 35S-methionine-labeled full-length HMGCR protein, immunoprecipitation was abolished (FIG. 7A).
DNA encoding full-length human HMG-CoA reductase was purchased from Invitrogen (Carlsbad, Calif.). […]
One microliter of each patient serum was preincubated (30 minutes at 4° C. in 50 μl) with the catalytic domain of human HMG-CoA reductase (aa 426-888 of SEQ ID NO: 1) expressed as a fusion protein with glutathione S-transferase (hereinafter referred to as “C-terminal HMG-CoA reductase”; Sigma). […]

For `CC[C@H](C)C(=O)O[C@H]1C[C@@H](C)C=C2C=C[C@H](C)[C@H](CC[C@@H]3C[C@@H](O)CC(=O)O3)[C@H]21` [mevinolin], the “increased levels of both the 200-kd and the 100-kd protein immunoprecipitated” value (HeLa cells) was 3 fold.

`C[C@]12C=CC(=O)C=C1CC[C@@H]1[C@@H]2C(=O)C[C@@]2(C)[C@H]1CC[C@]2(O)C(=O)CO` [prednisone] was tested, and the “initial response to prednisone” value ([1]; most patients, combination immunosuppressive therapy was required) was “very modest initial response”.

For Rituximab: immunosuppressant drug, the “benefit as adjunct therapy” value ([1]; added to prednisone and azathioprine or methotrexate) was “helpful adjuncts”.

B1: C-terminal HMGCR: catalytic domain of human HMG-CoA reductase (aa 426-888 of SEQ ID NO: 1) expressed as a fusion protein with glutathione S-transferase (Sigma) (protein, UniProt P04035 426-888, looked up, fragment)
chain: SSVLVTQEPEIELPREPRPNEECLQILGNAEKGAKFLSDAEIIQLVNAKHIPAYKLETLMETHERGVSIRRQLLSKKLSEPSSLQYLPYRDYNYSLVMGACCENVIGYMPIPVGVAGPLCLDEKEFQVPMATTEGCLVASTNRGCRAIGLGGGASSRVLADGMTRGPVVRLPRACDSAEVKAWLETSEGFAVIKEAFDSTSRFARLQKLHTSIAGRNLYIRFQSRSGDAMGMNMISKGTEKALSKLHEYFPEMQILAVSGNYCTDKKPAAINWIEGRGKSVVCEAVIPAKVVREVLKTTTEAMIEVNINKNLVGSAMAGSIGGYNAHAANIVTAIYIACGQDAAQNVGSSNCITLMEASGPTNEDLYISCTMPSIEIGTVGGGTNLLPQQACLQMLGVQGACKDNPGENARQLARIVCGTVMAGELSLMAALAAGHLVKSHMIHNRSKINLQDLQGACTKKTA
modifications: GST fusion
For B1, the “immunoprecipitation of 35S-methionine-labeled full-length HMGCR protein” value [2] was “abolished”.
